≈ marks a conversion by molar mass, not a printed value. *1 amine or outer side, *2 acyl side, *3 side chain or, on linkers, in order; H or OH if unused. Where a SMILES comes first, the peptide text is derived from it. [ ]: non-standard residue; d: D form. The star is where a group is joined. Orn(α-tetramethylguanidino) = CN(C)C(=N[C@@H](CCCN)C(=O)*)N(C)C; X1 = N=C(N)NCCC[C@H](NC(=S)[C@@H]1CCCN1[*:1])C(=O)[*:2]; 2Nal = N[C@@H](Cc1ccc2ccccc2c1)C(=O)O; Hyp = O=C(O)[C@@H]1C[C@@H](O)CN1; hArg = N=C(N)NCCCC[C@H](N)C(=O)O; Cha = N[C@@H](CC1CCCCC1)C(=O)O; Cit = NC(=O)NCCC[C@H](N)C(=O)O; dLeu(ol) = CC(C)C[C@@H](N)CO; Leu(ol) = CC(C)C[C@H](N)CO; NHIsopentyl = CC(C)CCN*
Experiments:
[1] = tested on: Escherichia coli; assay: Antibacterial activity against Escherichia coli BL21 assessed as bacterial growth inhibition by broth microdilution assay; type: functional
[2] = tested on: Escherichia coli; assay: Potency index, ratio of Api-137 MIC to test compound MIC for antibacterial activity against Escherichia coli BL21 assessed as bacterial growth inhibition by broth microdilution assay; type: functional

| SMILES | MIC [1] [µM] | Ratio [2] |
| --- | --- | --- |
| CC[C@H](C)[C@H](NC(=O)[C@H](Cc1ccc(O)cc1)NC(=O)[C@@H](NC(=O)[C@@H]1CCCN1C(=O)[C@H](CCCNC(=N)N)NC(=O)[C@H](CC(N)=O)NC(=O)[C@H](CC(N)=O)NC(=O)[C@H](CCCN)N=C(N(C)C)N(C)C)C(C)C)C(=O)N1CCC[C@H]1C(=O)N[C@@H](CCCNC(=N)N)C(=O)N1CCC[C@H]1C(=O)N[C@@H](CCCNC(=N)N)C(=O)N1CCC[C@H]1C(=O)N1CCC[C@H]1C(=O)N[C@@H](Cc1c[nH]cn1)C(=O)N1CCC[C@H]1C(=O)N[C@@H](CCCNC(=N)N)C(=O)N[C@@H](CO)Cc1ccccc1 | 40 (≈ 92.5 µg/mL) | 800 |
| CC[C@H](C)[C@H](NC(=O)[C@H](Cc1ccc(O)cc1)NC(=O)[C@@H](NC(=O)[C@@H]1CCCN1C(=O)[C@H](CCCNC(=N)N)NC(=O)[C@H](CC(N)=O)NC(=O)[C@H](CC(N)=O)NC(=O)[C@H](CCCN)N=C(N(C)C)N(C)C)C(C)C)C(=O)N1CCC[C@H]1C(=O)N[C@@H](CCCNC(=N)N)C(=O)N1CCC[C@H]1C(=O)N[C@@H](CCCNC(=N)N)C(=O)N1CCC[C@H]1C(=O)N1CCC[C@H]1C(=O)N[C@@H](Cc1c[nH]cn1)C(=O)N1CCC[C@H]1C(=O)N[C@@H](CCCNC(=N)N)C(=O)N[C@H](CO)Cc1ccccc1 | 5 (≈ 11.6 µg/mL) | 32 |
| CC[C@H](C)[C@H](NC(=O)[C@H](Cc1ccc(OC)cc1)NC(=O)[C@@H](NC(=O)[C@@H]1CCCN1C(=O)[C@H](CCCNC(=N)N)NC(=O)[C@H](CC(N)=O)NC(=O)[C@H](CC(N)=O)NC(=O)[C@H](CCCN)N=C(N(C)C)N(C)C)C(C)C)C(=O)N1CCC[C@H]1C(=O)N[C@@H](CCCNC(=N)N)C(=O)N1CCC[C@H]1C(=O)N[C@@H](CCCNC(=N)N)C(=O)N1CCC[C@H]1C(=O)N1CCC[C@H]1C(=O)N[C@@H](Cc1c[nH]cn1)C(=O)N1CCC[C@H]1C(=O)N[C@@H](CCCNC(=N)N)C(=O)N[C@@H](CC(C)C)C(=O)O ({Orn(α-tetramethylguanidino)}-NNRPVY(Me)IPRPRPPHPRL-OH) | 1.5 (≈ 3.46 µg/mL) | 4 |
| CC[C@H](C)[C@H](NC(=O)[C@H](Cc1ccc(O)cc1)NC(=O)[C@@H](NC(=O)[C@@H]1CCCN1C(=O)[C@H](CCCNC(=N)N)NC(=O)[C@H](CC(N)=O)NC(=O)[C@H](CC(N)=O)NC(=O)[C@H](CCCN)N=C(N(C)C)N(C)C)C(C)C)C(=O)N1CCC[C@H]1C(=O)N[C@@H](CCCNC(=N)N)C(=O)N1CCC[C@H]1C(=O)N[C@@H](CCCNC(=N)N)C(=O)N1CCC[C@H]1C(=O)N1CCC[C@H]1C(=O)N[C@@H](Cc1c[nH]cn1)C(=O)N1CCC[C@H]1C(=O)N[C@@H](CCCNC(=N)N)C(=O)NCCC(C)C ({Orn(α-tetramethylguanidino)}-NNRPVYIPRPRPPHPR-NHIsopentyl) | > 40 | >800 |
| CC[C@H](C)[C@H](NC(=O)[C@H](Cc1ccc(O)cc1)NC(=O)[C@@H](NC(=O)[C@@H]1CCCN1C(=O)[C@H](CCCNC(=N)N)NC(=O)[C@H](CC(N)=O)NC(=O)[C@H](CC(N)=O)NC(=O)[C@H](CCCN)N=C(N(C)C)N(C)C)C(C)C)C(=O)N1CCC[C@H]1C(=O)N[C@@H](CCCNC(=N)N)C(=O)N1CCC[C@H]1C(=O)N[C@@H](CCCNC(=N)N)C(=O)N1CCC[C@H]1C(=O)N1CCC[C@H]1C(=O)N[C@@H](Cc1c[nH]cn1)C(=O)N1CCC[C@H]1C(=O)N[C@@H](CCCNC(=N)N)C(=O)N[C@H](CO)CC(C)C ({Orn(α-tetramethylguanidino)}-NNRPVYIPRPRPPHPR[Leu(ol)]) | 5 (≈ 11.4 µg/mL) | 32 |
| CC[C@H](C)[C@H](NC(=O)[C@H](Cc1ccc(O)cc1)NC(=O)[C@@H](NC(=O)[C@@H]1CCCN1C(=O)[C@H](CCCNC(=N)N)NC(=O)[C@H](CC(N)=O)NC(=O)[C@H](CC(N)=O)NC(=O)[C@H](CCCN)N=C(N(C)C)N(C)C)C(C)C)C(=O)N1CCC[C@H]1C(=O)N[C@@H](CCCNC(=N)N)C(=O)N1CCC[C@H]1C(=O)N[C@@H](CCCNC(=N)N)C(=O)N1CCC[C@H]1C(=O)N1CCC[C@H]1C(=O)N[C@@H](Cc1c[nH]cn1)C(=O)N1CCC[C@H]1C(=O)N[C@@H](CCCNC(=N)N)C(=O)N[C@@H](CO)CC(C)C ({Orn(α-tetramethylguanidino)}-NNRPVYIPRPRPPHPR[dLeu(ol)]) | 10 (≈ 22.8 µg/mL) | 62 |
| CC[C@H](C)[C@H](NC(=O)[C@H](Cc1ccc(O)cc1)NC(=O)[C@@H](NC(=O)[C@@H]1CCCN1C(=O)[C@H](CCCNC(=N)N)NC(=O)[C@H](CC(N)=O)NC(=O)[C@H](CC(N)=O)NC(=O)[C@H](CCCN)N=C(N(C)C)N(C)C)C(C)C)C(=O)N1CCC[C@H]1C(=O)N[C@@H](CCCNC(=N)N)C(=O)N1CCC[C@H]1C(=O)N[C@@H](CCCNC(=N)N)C(=O)N1CCC[C@H]1C(=O)N1CCC[C@H]1C(=O)N[C@@H](Cc1c[nH]cn1)C(=O)N1CCC[C@H]1C(=O)N[C@@H](CCCNC(N)=O)C(=O)N[C@@H](CC(C)C)C(=O)O ({Orn(α-tetramethylguanidino)}-NNRPVYIPRPRPPHP[Cit]L-OH) | 20 (≈ 45.9 µg/mL) | 128 |
| CC[C@H](C)[C@H](NC(=O)[C@H](Cc1ccc(O)cc1)NC(=O)[C@@H](NC(=O)[C@@H]1CCCN1C(=O)[C@H](CCCNC(=N)N)NC(=O)[C@H](CC(N)=O)NC(=O)[C@H](CC(N)=O)NC(=O)[C@H](CCCN)N=C(N(C)C)N(C)C)C(C)C)C(=O)N1CCC[C@H]1C(=O)N[C@@H](CCCNC(=N)N)C(=O)N1CCC[C@H]1C(=O)N[C@@H](CCCNC(=N)N)C(=O)N1CCC[C@H]1C(=O)N1CCC[C@H]1C(=O)N[C@@H](Cc1c[nH]cn1)C(=O)N1CCC[C@H]1C(=O)N[C@@H](CCCCNC(=N)N)C(=O)N[C@@H](CC(C)C)C(=O)O ({Orn(α-tetramethylguanidino)}-NNRPVYIPRPRPPHP[hArg]L-OH) | 2.5 (≈ 5.76 µg/mL) | 16 |
| CC[C@H](C)[C@H](NC(=O)[C@H](Cc1ccc(O)cc1)NC(=O)[C@@H](NC(=O)[C@@H]1CCCN1C(=O)[C@H](CCCNC(=N)N)NC(=O)[C@H](CC(N)=O)NC(=O)[C@H](CC(N)=O)NC(=O)[C@H](CCCN)N=C(N(C)C)N(C)C)C(C)C)C(=O)N1CCC[C@H]1C(=O)N[C@@H](CCCNC(=N)N)C(=O)N1CCC[C@H]1C(=O)N[C@@H](CCCNC(=N)N)C(=O)N1CCC[C@H]1C(=O)N1CCC[C@H]1C(=O)N[C@@H](Cc1c[nH]cn1)C(=O)N1C[C@H](O)C[C@H]1C(=O)N[C@@H](CCCNC(=N)N)C(=O)N[C@@H](CC(C)C)C(=O)O ({Orn(α-tetramethylguanidino)}-NNRPVYIPRPRPPH[Hyp]RL-OH) | 0.3 (≈ 0.692 µg/mL) | 2 |
| CC[C@H](C)[C@H](NC(=O)[C@H](Cc1ccc(O)cc1)NC(=O)[C@@H](NC(=O)[C@@H]1CCCN1C(=O)[C@H](CCCNC(=N)N)NC(=O)[C@H](CC(N)=O)NC(=O)[C@H](CC(N)=O)NC(=O)[C@H](CCCN)N=C(N(C)C)N(C)C)C(C)C)C(=O)N1CCC[C@H]1C(=O)N[C@@H](CCCNC(=N)N)C(=O)N1CCC[C@H]1C(=O)N[C@@H](CCCNC(=N)N)C(=O)N1CCC[C@H]1C(=O)N1CCC[C@H]1C(=O)N[C@@H](Cc1c[nH]cn1)C(=O)N1CCC[C@H]1C(=S)N[C@@H](CCCNC(=N)N)C(=O)N[C@@H](CC(C)C)C(=O)O ({Orn(α-tetramethylguanidino)}-NNRPVYIPRPRPPH[X1]L-OH) | 0.62 (≈ 1.43 µg/mL) | 4 |
| CC[C@H](C)[C@H](NC(=O)[C@H](Cc1ccc(O)cc1)NC(=O)[C@@H](NC(=O)[C@@H]1CCCN1C(=O)[C@H](CCCNC(=N)N)NC(=O)[C@H](CC(N)=O)NC(=O)[C@H](CC(N)=O)NC(=O)[C@H](CCCN)N=C(N(C)C)N(C)C)C(C)C)C(=O)N1CCC[C@H]1C(=O)N[C@@H](CCCNC(=N)N)C(=O)N1CCC[C@H]1C(=O)N[C@@H](CCCNC(=N)N)C(=O)N1CCC[C@H]1C(=O)N1CCC[C@H]1C(=O)N[C@@H](Cc1c[nH]c2ccccc12)C(=O)N1CCC[C@H]1C(=O)N[C@@H](CCCNC(=N)N)C(=O)N[C@@H](CC(C)C)C(=O)O ({Orn(α-tetramethylguanidino)}-NNRPVYIPRPRPPWPRL-OH) | 1.2 (≈ 2.81 µg/mL) | 8 |
| CC[C@H](C)[C@H](NC(=O)[C@H](Cc1ccc(O)cc1)NC(=O)[C@@H](NC(=O)[C@@H]1CCCN1C(=O)[C@H](CCCNC(=N)N)NC(=O)[C@H](CC(N)=O)NC(=O)[C@H](CC(N)=O)NC(=O)[C@H](CCCN)N=C(N(C)C)N(C)C)C(C)C)C(=O)N1CCC[C@H]1C(=O)N[C@@H](CCCNC(=N)N)C(=O)N1CCC[C@H]1C(=O)N[C@@H](CCCNC(=N)N)C(=O)N1CCC[C@H]1C(=O)N1CCC[C@H]1C(=O)N[C@@H](Cc1ccc2ccccc2c1)C(=O)N1CCC[C@H]1C(=O)N[C@@H](CCCNC(=N)N)C(=O)N[C@@H](CC(C)C)C(=O)O ({Orn(α-tetramethylguanidino)}-NNRPVYIPRPRPP[2Nal]PRL-OH) | 10 (≈ 23.5 µg/mL) | 63 |
| CC[C@H](C)[C@H](NC(=O)[C@H](Cc1ccc(O)cc1)NC(=O)[C@@H](NC(=O)[C@@H]1CCCN1C(=O)[C@H](CCCNC(=N)N)NC(=O)[C@H](CC(N)=O)NC(=O)[C@H](CC(N)=O)NC(=O)[C@H](CCCN)N=C(N(C)C)N(C)C)C(C)C)C(=O)N1CCC[C@H]1C(=O)N[C@@H](CCCNC(=N)N)C(=O)N1CCC[C@H]1C(=O)N[C@@H](CCCNC(=N)N)C(=O)N1CCC[C@H]1C(=O)N1CCC[C@H]1C(=O)N[C@@H](CC1CCCCC1)C(=O)N1CCC[C@H]1C(=O)N[C@@H](CCCNC(=N)N)C(=O)N[C@@H](CC(C)C)C(=O)O ({Orn(α-tetramethylguanidino)}-NNRPVYIPRPRPP[Cha]PRL-OH) | 5 (≈ 11.5 µg/mL) | 32 |
| CC[C@H](C)[C@H](NC(=O)[C@H](Cc1ccc(O)cc1)NC(=O)[C@@H](NC(=O)[C@@H]1CCCN1C(=O)[C@H](CCCNC(=N)N)NC(=O)[C@H](CC(N)=O)NC(=O)[C@H](CC(N)=O)NC(=O)[C@H](CCCN)N=C(N(C)C)N(C)C)C(C)C)C(=O)N1CCC[C@H]1C(=O)N[C@@H](CCCNC(=N)N)C(=O)N1CCC[C@H]1C(=O)N[C@@H](CCCNC(=N)N)C(=O)N1CCC[C@H]1C(=O)N1C[C@H](O)C[C@H]1C(=O)N[C@@H](Cc1c[nH]cn1)C(=O)N1CCC[C@H]1C(=O)N[C@@H](CCCNC(=N)N)C(=O)N[C@@H](CC(C)C)C(=O)O ({Orn(α-tetramethylguanidino)}-NNRPVYIPRPRP[Hyp]HPRL-OH) | 0.6 (≈ 1.38 µg/mL) | 2 |
